Source: PubChem BioAssay AID1919005 (Molecular Pharmacology Branch, DTP, NCI, 2023)

System: 855422-203-R-J1-PDC complex spheroid growth
Assay: Anticancer human tumor 855422-203-R-J1-PDC patient-derived bladder carcinoma cell line growth inhibition [AhR]
Details: for IC50: curve of first compound; for viability, T/C: stronger effect = lower value
Outline: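 Agents were dosed in half-log steps down from roughly clinical Cmax, or from 10 microM where Cmax was unknown, alone and with AhR antagonists. Read-out: percent test/control growth of tumor spheroids containing HUVEC and MSC stromal cells.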
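Further: spheroids exposed to agents for seven days before readout.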
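Wherever viability, T/C is given: percent of DMSO vehicle control luminescence viability.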

CC(C)CC(NC(=O)C(Cc1ccccc1)NC(=O)c1cnccn1)B(O)O (stereo not given) + CC(CO)NC(=O)c1cc(-c2ccc(Cl)cc2)nn(-c2cnn(C)c2)c1=O
IC50 (second compound 0.1 µM): 1.83 nM | IC50 (second compound 0.316 µM): 1.82 nM | IC50 (second compound 1 µM): 1.79 nM | IC50 (second compound 3.16 µM): 1.55 nM | IC50 (second compound 10 µM): 1.42 nM | viability, T/C (second compound 0.1 µM, first compound 0.000949 µM): 115% | viability, T/C (second compound 0.1 µM, first compound 0.003 µM): 0.93% | viability, T/C (second compound 0.1 µM, first compound 0.00949 µM): 0.37% | viability, T/C (second compound 0.1 µM, first compound 0.03 µM): 0.65% | viability, T/C (second compound 0.1 µM, first compound 0.0949 µM): 0.65% | viability, T/C (second compound 0.1 µM, first compound 0.3 µM): 0.89% | viability, T/C (second compound 0.316 µM, first compound 0.000949 µM): 113% | viability, T/C (second compound 0.316 µM, first compound 0.003 µM): 1.18% | viability, T/C (second compound 0.316 µM, first compound 0.00949 µM): 0.04% | viability, T/C (second compound 0.316 µM, first compound 0.03 µM): 0.01% | viability, T/C (second compound 0.316 µM, first compound 0.0949 µM): 0.02% | viability, T/C (second compound 0.316 µM, first compound 0.3 µM): 0.12% | viability, T/C (second compound 1 µM, first compound 0.000949 µM): 111% | viability, T/C (second compound 1 µM, first compound 0.003 µM): 0.73% | viability, T/C (second compound 1 µM, first compound 0.00949 µM): 0.02% | viability, T/C (second compound 1 µM, first compound 0.03 µM): 0.22% | viability, T/C (second compound 1 µM, first compound 0.0949 µM): 0.02% | viability, T/C (second compound 1 µM, first compound 0.3 µM): 0.11% | viability, T/C (second compound 3.16 µM, first compound 0.000949 µM): 86.3% | viability, T/C (second compound 3.16 µM, first compound 0.003 µM): 0.7% | viability, T/C (second compound 3.16 µM, first compound 0.00949 µM): 2.8% | viability, T/C (second compound 3.16 µM, first compound 0.03 µM): 0.03% | viability, T/C (second compound 3.16 µM, first compound 0.0949 µM): 0.14% | viability, T/C (second compound 3.16 µM, first compound 0.3 µM): 0.14% | viability, T/C (second compound 10 µM, first compound 0.000949 µM): 76.3% | viability, T/C (second compound 10 µM, first compound 0.003 µM): 1% | viability, T/C (second compound 10 µM, first compound 0.00949 µM): 0.16% | viability, T/C (second compound 10 µM, first compound 0.03 µM): 0.18% | viability, T/C (second compound 10 µM, first compound 0.0949 µM): 0.14% | viability, T/C (second compound 10 µM, first compound 0.3 µM): 0.2%

Nc1ncn(C2CC(O)C(CO)O2)c(=O)n1 (stereo not given) + CC(CO)NC(=O)c1cc(-c2ccc(Cl)cc2)nn(-c2cnn(C)c2)c1=O
IC50 (second compound 0.1 µM): > 1000 nM | IC50 (second compound 0.316 µM): > 1000 nM | IC50 (second compound 1 µM): > 1000 nM | IC50 (second compound 3.16 µM): > 1000 nM | IC50 (second compound 10 µM): > 1000 nM | viability, T/C (second compound 0.1 µM, first compound 0.00316 µM): 92.6% | viability, T/C (second compound 0.1 µM, first compound 0.01 µM): 92.2% | viability, T/C (second compound 0.1 µM, first compound 0.0316 µM): 85% | viability, T/C (second compound 0.1 µM, first compound 0.1 µM): 85.3% | viability, T/C (second compound 0.1 µM, first compound 0.316 µM): 73% | viability, T/C (second compound 0.1 µM, first compound 1 µM): 76.3% | viability, T/C (second compound 0.316 µM, first compound 0.00316 µM): 94.6% | viability, T/C (second compound 0.316 µM, first compound 0.01 µM): 90.3% | viability, T/C (second compound 0.316 µM, first compound 0.0316 µM): 93.3% | viability, T/C (second compound 0.316 µM, first compound 0.1 µM): 83.6% | viability, T/C (second compound 0.316 µM, first compound 0.316 µM): 80.7% | viability, T/C (second compound 0.316 µM, first compound 1 µM): 78.2% | viability, T/C (second compound 1 µM, first compound 0.00316 µM): 103% | viability, T/C (second compound 1 µM, first compound 0.01 µM): 96.6% | viability, T/C (second compound 1 µM, first compound 0.0316 µM): 95.7% | viability, T/C (second compound 1 µM, first compound 0.1 µM): 87.4% | viability, T/C (second compound 1 µM, first compound 0.316 µM): 82.5% | viability, T/C (second compound 1 µM, first compound 1 µM): 80.2% | viability, T/C (second compound 3.16 µM, first compound 0.00316 µM): 95.3% | viability, T/C (second compound 3.16 µM, first compound 0.01 µM): 93.9% | viability, T/C (second compound 3.16 µM, first compound 0.0316 µM): 90.2% | viability, T/C (second compound 3.16 µM, first compound 0.1 µM): 79.8% | viability, T/C (second compound 3.16 µM, first compound 0.316 µM): 79.5% | viability, T/C (second compound 3.16 µM, first compound 1 µM): 80.9% | viability, T/C (second compound 10 µM, first compound 0.00316 µM): 96.5% | viability, T/C (second compound 10 µM, first compound 0.01 µM): 88.7% | viability, T/C (second compound 10 µM, first compound 0.0316 µM): 88.3% | viability, T/C (second compound 10 µM, first compound 0.1 µM): 91.5% | viability, T/C (second compound 10 µM, first compound 0.316 µM): 84.8% | viability, T/C (second compound 10 µM, first compound 1 µM): 76.3%
